One data set addresses T1, MAO-A (Homo sapiens, UniProt P21397).
T1 sequence (P21397 whole entry): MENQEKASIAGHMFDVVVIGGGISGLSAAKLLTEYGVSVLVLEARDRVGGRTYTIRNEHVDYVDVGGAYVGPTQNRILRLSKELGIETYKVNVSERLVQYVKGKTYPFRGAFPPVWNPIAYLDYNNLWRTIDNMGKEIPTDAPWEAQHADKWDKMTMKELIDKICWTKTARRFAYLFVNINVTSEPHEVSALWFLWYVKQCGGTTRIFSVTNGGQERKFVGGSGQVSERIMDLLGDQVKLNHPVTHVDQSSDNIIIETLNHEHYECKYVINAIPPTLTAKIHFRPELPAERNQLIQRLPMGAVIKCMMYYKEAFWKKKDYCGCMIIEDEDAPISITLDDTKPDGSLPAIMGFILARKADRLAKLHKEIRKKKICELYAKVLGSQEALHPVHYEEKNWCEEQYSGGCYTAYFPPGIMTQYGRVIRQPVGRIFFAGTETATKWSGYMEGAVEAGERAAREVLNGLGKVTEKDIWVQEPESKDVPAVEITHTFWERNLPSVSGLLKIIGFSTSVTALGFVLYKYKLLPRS
Kind of data set: Inhibition of MAO-A (unknown origin) at 10 uM relative to control.

Another data set concerns the target T2, MAO-B (Homo sapiens, UniProt P27338).
T2 sequence (P27338 whole entry): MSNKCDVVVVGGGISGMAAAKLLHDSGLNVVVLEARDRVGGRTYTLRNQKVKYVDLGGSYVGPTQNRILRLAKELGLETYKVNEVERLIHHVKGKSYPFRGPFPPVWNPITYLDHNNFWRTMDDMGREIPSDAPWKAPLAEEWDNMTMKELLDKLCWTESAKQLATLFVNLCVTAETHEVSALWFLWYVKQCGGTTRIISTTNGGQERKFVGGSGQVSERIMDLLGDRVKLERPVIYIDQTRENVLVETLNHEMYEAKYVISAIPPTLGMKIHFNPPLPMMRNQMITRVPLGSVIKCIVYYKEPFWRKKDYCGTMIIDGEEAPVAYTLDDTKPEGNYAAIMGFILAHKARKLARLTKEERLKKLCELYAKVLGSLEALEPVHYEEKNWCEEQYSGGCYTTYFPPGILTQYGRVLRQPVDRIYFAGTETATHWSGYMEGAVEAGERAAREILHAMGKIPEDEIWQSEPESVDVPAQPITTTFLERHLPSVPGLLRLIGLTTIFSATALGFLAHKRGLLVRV
Kind of data set: Inhibition of MAO-B (unknown origin) at 10 uM relative to control.

The next data set concerns PC-3. The experiment in a line: cells. The note with it: Homo sapiens, PC-3, read-out: INH.
In another data set the test system is MCF7. The experiment in a line: cells. Conditions: Homo sapiens, MCF7, read-out: INH.
A further data set concerns MGC-803. The experiment in a line: cells. Conditions: Homo sapiens, MGC-803, read-out: INH.
Another data set deals with SGC-7901. The experiment in a line: cells. Conditions: Homo sapiens, SGC-7901, read-out: INH.

Description for MCF7: Antiproliferative activity against human MCF7 cells assessed as cell growth inhibition at 16 uM relative to control
Description for MGC-803: Antiproliferative activity against human MGC803 cells assessed as cell growth inhibition at 16 uM relative to control
Description for PC-3: Antiproliferative activity against human PC-3 cells assessed as cell growth inhibition at 16 uM relative to control
Description for SGC-7901: Antiproliferative activity against human SGC7901 cells assessed as cell growth inhibition at 16 uM relative to control

With `Fc1ccc([C@@H]2C[C@H]2NCc2cn(-c3cccc(C(F)(F)F)c3)nn2)cc1F`, the inhibition at 10 µM is 90% at MAO-A and 43% against MAO-B.

`FC(F)(F)c1ccc(-n2cc(CN[C@@H]3C[C@H]3c3ccccc3)nn2)cc1`: the values for the inhibition at 10 µM at MAO-A and at MAO-B were 101% and 86%, respectively.

As for `COc1ccc(-n2cc(CN[C@@H]3C[C@H]3c3ccccc3)nn2)cc1`, the values for the inhibition at 10 µM against MAO-A and against MAO-B were 99% and 55%, respectively.

With `Fc1ccc([C@@H]2C[C@H]2NCc2cn(-c3ccc(C(F)(F)F)cc3)nn2)cc1F`, the inhibition at 10 µM at MAO-A is 101%; on MAO-B, 82%.

In the case of `COc1cccc(-n2cc(CN[C@@H]3C[C@H]3c3ccc(F)c(F)c3)nn2)c1`, the values for the inhibition at 10 µM on MAO-A and on MAO-B were 102% and 65%, respectively.

For the compound `COc1ccc(OC)c(-n2cc(CN[C@@H]3C[C@H]3c3ccc(F)c(F)c3)nn2)c1`, the results for the inhibition at 10 µM against MAO-A and against MAO-B were 89% and 48%, respectively. Also, the inhibition at 16 µM in the data set on PC-3 amounted to 21.8%; in the data set on MCF7, 33.6%; in the data set on MGC-803 it was 24.5%; in the data set with SGC-7901, 27.7%.

Take `COc1ccc(-n2cc(CN[C@@H]3C[C@H]3c3ccc(F)c(F)c3)nn2)cc1`: the inhibition at 10 µM is 100% at MAO-A and 64% on MAO-B. Further, the inhibition at 16 µM was 25.2% with PC-3, 37.3% with MCF7, 16.3% with MGC-803 and 42% with SGC-7901.

On to `FC(F)(F)c1cccc(-n2cc(CN[C@@H]3C[C@H]3c3ccccc3)nn2)c1`, for which the inhibition at 10 µM at MAO-A was found to be 101%; against MAO-B it was 94%.

On to `c1ccc([C@@H]2C[C@H]2NCc2cn(-c3ccccc3)nn2)cc1`, for which the inhibition at 10 µM amounted to 102% against MAO-A and 76% against MAO-B.

As for `FC(F)(F)c1cc(-n2cc(CN[C@@H]3C[C@H]3c3ccccc3)nn2)cc(C(F)(F)F)c1`, the inhibition at 10 µM on MAO-A amounted to 92%; on MAO-B, 88%.

Regarding `COc1ccccc1-n1cc(CN[C@@H]2C[C@H]2c2ccc(F)c(F)c2)nn1`, the inhibition at 10 µM was found to be 90% at MAO-A and 51% at MAO-B.

For the compound `COc1ccc(OC)c(-n2cc(CN[C@@H]3C[C@H]3c3ccccc3)nn2)c1`, the inhibition at 10 µM stood at 97% on MAO-A and 58% at MAO-B.

With `COc1cc(OC)cc(-n2cc(CN[C@@H]3C[C@H]3c3ccc(F)c(F)c3)nn2)c1`, the figures for the inhibition at 10 µM against MAO-A and at MAO-B were 93% and 42%, respectively.

Regarding `COc1ccccc1-n1cc(CN[C@@H]2C[C@H]2c2ccccc2)nn1`, the inhibition at 10 µM at MAO-A was determined as 91%; against MAO-B it was 44%.

Regarding `COc1cccc(-n2cc(CN[C@@H]3C[C@H]3c3ccccc3)nn2)c1`, the inhibition at 10 µM against MAO-A was 93%; at MAO-B, 54%.

In the case of `Fc1ccc([C@@H]2C[C@H]2NCc2cn(-c3cc(C(F)(F)F)cc(C(F)(F)F)c3)nn2)cc1F`, the inhibition at 10 µM against MAO-A worked out at 91%; against MAO-B it was 35%.

As for `COc1cc(OC)cc(-n2cc(CN[C@@H]3C[C@H]3c3ccccc3)nn2)c1`, the inhibition at 10 µM was determined as 101% against MAO-A and 67% at MAO-B.

Source of the values: ChEMBL document CHEMBL4814040 (Bioorg Med Chem Lett, 2021).
